Reference: patent publication EP4806435A1, “DIHYDROCHROMENE-DERIVATIVE-CONTAINING THERAPEUTIC AGENT FOR CANCER” (Sumitomo Pharma Co., Ltd., priority 2023, dated 2025)

Test system: BT142 cells
Assay: Cytotoxicity assay, LDL-supplemented sphere culture, low-grade glioma line (ATP)
Format: cell-based
Details: 1 µM; 7 days; LDL 5 µg/mL; BT142 (IDH1 mutant-type, R132H/-)
Experimental: U-87 cells (IDH1 wild-type) and BT142 cells derived from low-grade glioma (IDH1 mutant-type, R132H/-) were cultured for 7 days in LDL-supplemented sphere medium in the presence or absence of Compound 1 (1 µM). The LDL concentration was 5 µg/mL. After incubation, intracellular ATP levels were quantified as an indicator of cell viability, and cytotoxicity was compared between conditions.

SMILES: CC1(C)Oc2cc(Cl)ccc2[C@@H]2OCC3(CCN(CCn4ccnc4)CC3)C[C@H]21 [Compound 1, (4'aR,10'bR)-8'-chloro-1-[2-(1H-imidazol-1-yl)ethyl]-5',5'-dimethyl-4'a,10'b-dihydro-2'H,4'H,5'H-spiro[piperidine-4,3'-pyrano[3,2-c][1]benzopyran] diphosphate]
- cytotoxicity: marked cytotoxicity
